In assay [1] the test system is MDA-MB-231, MDA-MB-468, MCF-7 and BT-474 cells. In words: Growth of breast cancer cells without HGF, MTT assay. It is filed as cell-based, human. The following applies: similar treatment doses; no HGF. As for the experimental part:
FIG. 3. (A) Effect of HVS treatment on HGF-stimulated growth of Met-dependent MDA-MB-231, MDA-MB-468, MCF-7. and BT-474 breast cancer cells after 72 h treatment period, compared to DMSO as vehicle control. Viable cell count was determined using MTT assay. Vertical bars indicate the mean cell count±SEM of N=3 in each treatment group; (−)-oleocanthal was used as a positive control at 20 μM. (B) Effect of HVS treatment on HGF-stimulated growth of Met-independent T-47D breast cancer cells after 72 h treatment period. Viable cell count was determined using MTT assay. Vertical bars indicate the mean cell count±SEM of N=3 in each treatment group. (C) Cytotoxic effects of HVS on the highly metastatic MDA-MB-231 breast cancer cells at two different concentrations (30 and 60 μM) using LDH cytotoxicity assay. Triton X-100 was used as a positive control to cause the breakdown of all the cells and induce the total possible LDH release. (D) Effects of HVS treatment on the viability of non-tumorigenic human MCF10A mammary epithelial cells after a 24 h treatment period, compared to DMSO as vehicle control. (E) As in panel (A) but without HGF. […] Viable cell count was determined using MTT assay. Vertical bars indicate the mean cell count±SEM of N=3 in each treatment group; doxorubicin was used as a positive control at 10 μM dose. *P<0.05 as compared with vehicle treated control.
[…]. […]
Background: Formazan colour is commonly taken as a measure of viable cells.

Assay [2] has as its system MDA-MB-231 breast cancer cells. In words: Western blot of c-Met downstream mitogenic and FAK/Brk/paxillin/Rac1 signaling. It is filed as cell-based, human. On the procedure:
FIG. 5. Effects of HVS treatment on c-Met downstream mitogenic and FAK/Brk/paxillin/Rac1 signaling pathways in human MDA-MB-231 breast cancer cells after a treatment period of 72 h. (A) Western Blot analysis showing HVS treatment effects on c-Met downstream mitogenic signaling molecules, Akt and MAPK, using different treatment doses, compared to the vehicle-treated control group. (B) Western Blot analysis showing HVS treatment effects on FAK/Brk/Paxillin/Rac1 signaling pathway using different treatment doses, compared to the vehicle-treated control group. The visualization of β-tubulin was used as a loading control. Representative Western Blots from each experiment are shown, N=3.
On the other hand, HVS had little or no effects on the total levels of FAK, Brk, paxillin, and Rac1 in treated cells. Exposure to antiproliferative concentrations of 8 blocked HGF-induced phosphorylation and activation of Akt and MAPK in MDA-MB-231 mammary cancer cells (FIG. 5). Activation of c-Met prevents apoptosis and maintains cancer cell survival through activation of PI3K and subsequent Akt-NFκB activation.

Assay [3] deals with ABL1 (Homo sapiens, UniProt P00519). Briefly: SelectScreen Kinase Profiling. The format is biochemical. The following applies: read-out: Mean inhibition at 10 μM of HVS (%).
Assay [4] has as its target ALK (Homo sapiens, UniProt Q9UM73). In words: SelectScreen Kinase Profiling. It is filed as biochemical. To be noted: read-out: Mean inhibition at 10 μM of HVS (%). On the procedure:
(§1) HVS was evaluated against a cross-section of tyrosine kinases (TKs), which are known to be structurally related and oncogenically relevant to c-Met, in order to understand its selectivity profile. A panel of 15 TKs was selected for biochemical analysis through the SelectScreen Kinase Profiling Service (Invitrogen, CA). In this assay, the results are expressed as % inhibition at a 10 μM dose (see Table I below).
(§2) Table I (Above) HVS was evaluated against a cross-section of tyrosine kinases (TKs), which are known to be structurally related and oncogenically relevant to c-Met, in order to understand its selectivity profile (Table 1). A panel of 15 TKs was selected for biochemical analysis through the SelectScreen Kinase Profiling Service (Invitrogen, CA). In this assay, the results are expressed as % inhibition at a 10 μM dose (Table 1).

Assay [5] concerns the target EGFR (ERbB1) (Homo sapiens, UniProt P00533). In words: SelectScreen Kinase Profiling. The following applies: read-out: Mean inhibition at 10 μM of HVS (%). It is filed as biochemical. As for the experimental part: as §1, §2
Assay [6] has as its target FGFR1 (Homo sapiens, UniProt P11362). In words: SelectScreen Kinase Profiling. To be noted: read-out: Mean inhibition at 10 μM of HVS (%). The format is biochemical. On the procedure: as §1, §2
In assay [7] the target is FLT1 (VEGFR1) (Homo sapiens, UniProt P17948). Briefly: SelectScreen Kinase Profiling. The format is biochemical. The following applies: read-out: Mean inhibition at 10 μM of HVS (%). On the procedure: as §1, §2
The target of assay [8] is HER2 (ERbB2) (Homo sapiens, UniProt P04626). Briefly: SelectScreen Kinase Profiling. To be noted: read-out: Mean inhibition at 10 μM of HVS (%). The format is biochemical. On the procedure:
as §1, §2

For assay [9], the target named is HER4 (ERbB4) (Homo sapiens, UniProt Q15303). Briefly: SelectScreen Kinase Profiling. It is filed as biochemical. To be noted: read-out: Mean inhibition at 10 μM of HVS (%). On the procedure:
as §1, §2

For assay [10], the target named is IGF1R (Homo sapiens, UniProt P08069). Briefly: SelectScreen Kinase Profiling. The format is biochemical. On the procedure: as §1, §2
Assay [11] deals with KDR (VEGFR2) (Homo sapiens, UniProt P35968). Briefly: SelectScreen Kinase Profiling. It is filed as biochemical. To be noted: read-out: Mean inhibition at 10 μM of HVS (%). As for the experimental part:
as §1, §2

Assay [12] addresses KIT (Homo sapiens, UniProt P10721). Briefly: SelectScreen Kinase Profiling. The format is biochemical. The following applies: read-out: Mean inhibition at 10 μM of HVS (%). On the procedure: as §1, §2
Assay [13] concerns the target PDGFRβ (Homo sapiens, UniProt P09619). Briefly: SelectScreen Kinase Profiling. It is filed as biochemical. The following applies: read-out: Mean inhibition at 10 μM of HVS (%). As for the experimental part: as §1, §2
The target in assay [14] is ROS1 (Homo sapiens, UniProt P08922). Briefly: SelectScreen Kinase Profiling. It is filed as biochemical. To be noted: read-out: Mean inhibition at 10 μM of HVS (%). On the procedure: as §1, §2

Usually inhibition stands for the relative decrease from the control value, in per cent.

Chain of IGF1R (P08069 31-1367): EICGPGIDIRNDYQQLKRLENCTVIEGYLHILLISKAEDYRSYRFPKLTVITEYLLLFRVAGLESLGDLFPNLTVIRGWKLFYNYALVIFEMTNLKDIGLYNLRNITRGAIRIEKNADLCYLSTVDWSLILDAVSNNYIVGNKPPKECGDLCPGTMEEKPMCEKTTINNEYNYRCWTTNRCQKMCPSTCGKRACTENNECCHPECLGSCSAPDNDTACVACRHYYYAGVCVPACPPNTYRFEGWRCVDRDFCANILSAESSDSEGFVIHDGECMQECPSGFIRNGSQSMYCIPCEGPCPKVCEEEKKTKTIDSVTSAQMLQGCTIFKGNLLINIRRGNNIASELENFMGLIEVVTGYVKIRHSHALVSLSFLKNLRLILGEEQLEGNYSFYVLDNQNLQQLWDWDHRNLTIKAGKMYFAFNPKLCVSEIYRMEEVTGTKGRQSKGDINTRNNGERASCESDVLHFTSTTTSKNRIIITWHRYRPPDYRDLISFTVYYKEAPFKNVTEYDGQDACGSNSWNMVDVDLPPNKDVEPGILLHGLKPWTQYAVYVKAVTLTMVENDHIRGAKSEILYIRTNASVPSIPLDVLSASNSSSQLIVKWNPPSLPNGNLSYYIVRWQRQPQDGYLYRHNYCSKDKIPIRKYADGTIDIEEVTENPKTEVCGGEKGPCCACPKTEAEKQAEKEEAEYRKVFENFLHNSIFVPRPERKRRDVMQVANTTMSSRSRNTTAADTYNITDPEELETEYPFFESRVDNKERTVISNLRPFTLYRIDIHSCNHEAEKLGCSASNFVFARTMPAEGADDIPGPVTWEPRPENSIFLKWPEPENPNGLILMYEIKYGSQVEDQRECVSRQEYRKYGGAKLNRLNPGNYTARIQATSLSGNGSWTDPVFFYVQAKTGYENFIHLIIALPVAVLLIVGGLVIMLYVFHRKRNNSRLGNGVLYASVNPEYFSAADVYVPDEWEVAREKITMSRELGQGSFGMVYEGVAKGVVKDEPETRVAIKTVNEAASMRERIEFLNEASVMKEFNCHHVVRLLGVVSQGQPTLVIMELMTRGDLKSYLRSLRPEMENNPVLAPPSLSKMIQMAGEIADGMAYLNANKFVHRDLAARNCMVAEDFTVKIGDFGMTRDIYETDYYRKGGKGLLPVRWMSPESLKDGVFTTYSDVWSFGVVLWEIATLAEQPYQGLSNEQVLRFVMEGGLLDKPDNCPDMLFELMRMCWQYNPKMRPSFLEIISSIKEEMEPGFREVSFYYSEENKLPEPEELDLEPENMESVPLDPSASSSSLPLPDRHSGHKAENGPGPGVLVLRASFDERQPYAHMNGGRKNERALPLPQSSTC
Chain of HER4 (ERbB4) (Q15303 26-1308): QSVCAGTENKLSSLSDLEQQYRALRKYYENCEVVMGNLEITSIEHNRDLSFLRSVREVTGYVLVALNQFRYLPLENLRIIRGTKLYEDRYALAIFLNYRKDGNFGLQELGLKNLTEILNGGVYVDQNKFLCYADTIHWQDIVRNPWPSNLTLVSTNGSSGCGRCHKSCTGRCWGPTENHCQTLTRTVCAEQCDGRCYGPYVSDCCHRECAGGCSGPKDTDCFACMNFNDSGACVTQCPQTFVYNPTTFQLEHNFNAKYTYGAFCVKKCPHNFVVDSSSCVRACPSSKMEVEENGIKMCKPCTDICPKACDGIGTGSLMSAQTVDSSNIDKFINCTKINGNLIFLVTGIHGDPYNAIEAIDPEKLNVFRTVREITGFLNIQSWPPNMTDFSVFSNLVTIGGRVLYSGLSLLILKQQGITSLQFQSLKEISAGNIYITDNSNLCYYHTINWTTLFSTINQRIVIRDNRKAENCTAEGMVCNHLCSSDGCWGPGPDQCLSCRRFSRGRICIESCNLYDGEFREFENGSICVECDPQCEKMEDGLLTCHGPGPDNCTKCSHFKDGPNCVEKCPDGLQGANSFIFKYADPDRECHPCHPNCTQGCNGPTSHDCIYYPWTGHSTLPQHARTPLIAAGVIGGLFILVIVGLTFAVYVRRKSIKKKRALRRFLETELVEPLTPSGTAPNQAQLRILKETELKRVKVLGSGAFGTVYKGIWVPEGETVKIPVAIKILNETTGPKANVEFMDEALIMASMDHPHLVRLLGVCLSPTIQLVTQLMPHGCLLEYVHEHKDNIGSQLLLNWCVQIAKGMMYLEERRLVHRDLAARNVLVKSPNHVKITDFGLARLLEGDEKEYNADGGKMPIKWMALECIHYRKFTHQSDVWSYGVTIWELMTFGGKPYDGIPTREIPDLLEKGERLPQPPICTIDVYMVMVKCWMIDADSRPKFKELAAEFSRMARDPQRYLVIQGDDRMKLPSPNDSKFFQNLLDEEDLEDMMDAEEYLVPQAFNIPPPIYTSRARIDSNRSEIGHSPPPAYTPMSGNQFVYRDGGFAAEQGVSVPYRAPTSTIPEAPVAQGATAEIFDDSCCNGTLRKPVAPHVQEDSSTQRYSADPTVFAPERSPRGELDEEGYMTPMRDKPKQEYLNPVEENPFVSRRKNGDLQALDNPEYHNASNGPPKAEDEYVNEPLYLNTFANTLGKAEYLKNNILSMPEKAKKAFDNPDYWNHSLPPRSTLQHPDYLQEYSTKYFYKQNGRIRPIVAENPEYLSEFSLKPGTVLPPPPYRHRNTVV
Chain of FGFR1 (P11362 22-822): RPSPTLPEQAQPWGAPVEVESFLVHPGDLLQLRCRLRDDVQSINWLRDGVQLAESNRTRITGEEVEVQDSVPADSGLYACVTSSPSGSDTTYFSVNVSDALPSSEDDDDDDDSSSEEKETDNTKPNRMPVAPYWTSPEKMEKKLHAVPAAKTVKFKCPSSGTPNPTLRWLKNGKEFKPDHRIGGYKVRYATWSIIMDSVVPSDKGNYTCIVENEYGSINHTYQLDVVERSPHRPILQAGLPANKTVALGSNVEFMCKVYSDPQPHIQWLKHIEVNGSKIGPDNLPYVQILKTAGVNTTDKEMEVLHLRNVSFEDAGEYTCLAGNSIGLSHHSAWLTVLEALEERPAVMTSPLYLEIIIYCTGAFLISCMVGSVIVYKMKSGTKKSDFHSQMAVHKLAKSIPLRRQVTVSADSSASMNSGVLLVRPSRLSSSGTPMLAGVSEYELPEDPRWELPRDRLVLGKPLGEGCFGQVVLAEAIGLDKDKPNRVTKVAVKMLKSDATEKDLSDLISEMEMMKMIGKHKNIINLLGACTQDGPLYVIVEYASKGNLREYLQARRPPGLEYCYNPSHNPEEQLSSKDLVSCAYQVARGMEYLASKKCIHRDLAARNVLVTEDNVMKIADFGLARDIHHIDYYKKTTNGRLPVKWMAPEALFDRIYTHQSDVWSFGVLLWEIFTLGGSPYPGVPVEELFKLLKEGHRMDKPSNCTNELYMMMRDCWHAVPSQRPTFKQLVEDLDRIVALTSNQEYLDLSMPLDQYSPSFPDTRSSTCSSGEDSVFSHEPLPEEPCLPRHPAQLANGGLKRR
Chain of HER2 (ERbB2) (P04626 23-1255): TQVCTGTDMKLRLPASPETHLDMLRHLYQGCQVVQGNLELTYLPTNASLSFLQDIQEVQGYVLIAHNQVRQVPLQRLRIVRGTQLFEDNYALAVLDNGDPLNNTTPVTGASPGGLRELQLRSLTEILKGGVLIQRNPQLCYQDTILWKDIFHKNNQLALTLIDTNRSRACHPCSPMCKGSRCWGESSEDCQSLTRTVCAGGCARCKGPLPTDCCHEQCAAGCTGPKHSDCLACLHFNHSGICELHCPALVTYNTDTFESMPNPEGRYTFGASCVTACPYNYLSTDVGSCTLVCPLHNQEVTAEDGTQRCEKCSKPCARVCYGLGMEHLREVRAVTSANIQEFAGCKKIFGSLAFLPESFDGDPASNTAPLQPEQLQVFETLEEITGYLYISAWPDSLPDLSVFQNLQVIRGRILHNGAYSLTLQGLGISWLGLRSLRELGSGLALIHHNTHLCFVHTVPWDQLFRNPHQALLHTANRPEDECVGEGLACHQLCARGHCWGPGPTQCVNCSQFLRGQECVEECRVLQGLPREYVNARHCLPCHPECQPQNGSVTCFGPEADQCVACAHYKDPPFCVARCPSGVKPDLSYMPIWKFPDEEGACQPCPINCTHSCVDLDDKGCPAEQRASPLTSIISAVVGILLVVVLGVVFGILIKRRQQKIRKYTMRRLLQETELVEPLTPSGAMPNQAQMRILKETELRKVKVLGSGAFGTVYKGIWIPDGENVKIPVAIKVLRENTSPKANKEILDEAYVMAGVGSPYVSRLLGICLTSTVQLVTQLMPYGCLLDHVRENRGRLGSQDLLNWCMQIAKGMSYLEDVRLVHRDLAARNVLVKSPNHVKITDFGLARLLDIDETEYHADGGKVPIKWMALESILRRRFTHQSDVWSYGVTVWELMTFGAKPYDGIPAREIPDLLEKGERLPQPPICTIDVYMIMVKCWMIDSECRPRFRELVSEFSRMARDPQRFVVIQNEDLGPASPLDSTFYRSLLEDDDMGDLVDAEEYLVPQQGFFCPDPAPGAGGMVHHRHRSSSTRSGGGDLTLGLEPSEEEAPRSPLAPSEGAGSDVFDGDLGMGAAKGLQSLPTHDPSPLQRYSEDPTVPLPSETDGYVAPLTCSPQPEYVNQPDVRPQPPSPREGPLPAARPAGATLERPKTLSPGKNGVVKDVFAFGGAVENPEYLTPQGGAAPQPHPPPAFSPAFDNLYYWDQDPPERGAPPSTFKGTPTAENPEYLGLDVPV

Take `COc1cc(CCOC(=O)/C=C/c2cc(OC)c(O)c(OC)c2)ccc1O` [Compound 8, (E)-4-hydroxy-3-methoxyph-ethyl 3-(4-hydroxy-3,5-dimethoxyphenyl) acrylate]: the “effect on growth in the absence of HGF” value in [1] is reported as “no discernable effects”. Also, in assay [2] (72-h treatment), the “FAK, Brk, paxillin and Rac1 phosphorylation (activation)” value is “dose-dependently suppressed”. In addition, the “HGF-induced phosphorylation and activation of Akt and MAPK” value in assay [2] (antiproliferative concentrations) is “blocked”. The inhibition at 10 µM in assay [3] is 79%; in [4], 21%; in [5], 7%; in assay [6], 50%; in [7], 9%; in assay [8], 4%. Moreover, the inhibition at 10 µM is 7% in assay [9]; -5% in assay [10] (read-out: Mean inhibition at 10 μM of HVS (%)); 20% in assay [11]; -3% in [12]; 14% in [13]; 24% in assay [14]. The “Mean inhibition at 10 μM of HVS (%)” value in assay [10] is given as “no observed inhibition”.

Values taken from patent US10959968B2, “Methods for treating c-Met-dependent cancers” (Board of Supervisors of Louisiana State University and …, priority 2016, dated 2021).
